Assay results taken from the supplement of paper PMC10307832.

Key:
Assay in all cases: relative viability (nuclei count vs DMSO), 5 days (fraction); higher = more cells survive
[1] = compound: CN(NC(=O)CC(=O)NN(C)C(=S)c1ccccc1)C(=S)c1ccccc1 [Elesclomol] + NC(=O)Nc1cc(-c2cccc(F)c2)sc1C(=O)N[C@H]1CCCNC1 [AZD7762] (partner 0.2 µM)
Procedure, shortened: (§1)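 Lung cancer cell lines, seeded in 1536-well plates, were treated the following day by pin tool with a single drug or with five library-drug doses (not always all listed) in √10 steps on top of a fixed anchor-drug dose. Cells were fixed and nuclei stained in one step after 5 days, and nuclei were counted. Relative viability is the nuclei count for treated wells divided by that for vehicle wells, reported as medians of duplicate plates.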

[2] = compound: CN(NC(=O)CC(=O)NN(C)C(=S)c1ccccc1)C(=S)c1ccccc1 [Elesclomol] + Cc1nc(NC(=O)N2CCC[C@H]2C(N)=O)sc1-c1ccnc(C(C)(C)C(F)(F)F)c1 [Alpelisib] (partner 2 µM)
Procedure, shortened: as §1

[3] = compound: CN(NC(=O)CC(=O)NN(C)C(=S)c1ccccc1)C(=S)c1ccccc1 [Elesclomol] + CS(=O)(=O)CCNCc1ccc(-c2ccc3ncnc(Nc4ccc(OCc5cccc(F)c5)c(Cl)c4)c3c2)o1 [Lapatinib] (partner 2 µM)
Procedure, shortened: as §1

[4] = compound: CN(NC(=O)CC(=O)NN(C)C(=S)c1ccccc1)C(=S)c1ccccc1 [Elesclomol] + Cc1nc(Nc2ncc(C(=O)Nc3c(C)cccc3Cl)s2)cc(N2CCN(CCO)CC2)n1 [Dasatinib] (partner 0.075 µM)
Procedure, shortened: as §1

[5] = compound: CN(NC(=O)CC(=O)NN(C)C(=S)c1ccccc1)C(=S)c1ccccc1 [Elesclomol] + N=C(N)NC(=N)NCCc1ccccc1 [Phenformin] (partner 250 µM)
Procedure, shortened: as §1

| Cell Line | relative viability ([1]; first compound 0.003162 µM) | relative viability ([1]; first compound 0.01 µM) | relative viability ([1]; first compound 0.03162 µM) | relative viability ([1]; first compound 0.1 µM) | relative viability ([2]; first compound 0.003162 µM) | relative viability ([2]; first compound 0.01 µM) | relative viability ([2]; first compound 0.03162 µM) | relative viability ([2]; first compound 0.1 µM) | relative viability ([3]; first compound 0.003162 µM) | relative viability ([3]; first compound 0.01 µM) | relative viability ([3]; first compound 0.03162 µM) | relative viability ([3]; first compound 0.1 µM) | relative viability ([4]; first compound 0.003162 µM) | relative viability ([4]; first compound 0.01 µM) | relative viability ([4]; first compound 0.03162 µM) | relative viability ([4]; first compound 0.1 µM) | relative viability ([5]; first compound 0.003162 µM) | relative viability ([5]; first compound 0.01 µM) | relative viability ([5]; first compound 0.03162 µM) | relative viability ([5]; first compound 0.1 µM) |
| --- | --- | --- | --- | --- | --- | --- | --- | --- | --- | --- | --- | --- | --- | --- | --- | --- | --- | --- | --- | --- |
| HCC-827 | 0.25 | 0.253 | 0.163 | 0.191 | 0.98 | 1.01 | 0.975 | 0.657 | 0.178 | 0.206 | 0.194 | 0.188 | 0.253 | 0.217 | 0.276 | 0.425 | 0.382 | 0.402 | 0.371 | 0.393 |
| HOP-62 | 0.545 | 0.576 | 0.389 | 0.104 | 1.05 | 0.712 | 0.797 | 0.113 | 1.17 | 0.872 | 0.811 | 0.251 | 0.678 | 0.638 | 0.458 | 0.213 | 0.629 | 0.508 | 0.353 | 0.176 |
| IA-LM | – | – | – | – | 0.789 | 0.164 | 0.076 | 0.027 | 0.658 | 0.201 | 0.121 | 0.0621 | – | – | – | – | – | – | – | – |
| LC-2-ad | 0.874 | 0.819 | 0.231 | 0.136 | 0.85 | 0.495 | 0.111 | 0.116 | 0.876 | 0.334 | 0.111 | 0.0969 | 0.492 | 0.196 | 0.202 | 0.179 | 0.514 | 0.271 | 0.269 | 0.331 |
| LCLC-97TM1 | 0.234 | 0.158 | 0.16 | 0.0576 | 0.216 | 0.211 | 0.167 | 0.104 | 0.575 | 0.299 | 0.687 | 0.0906 | 0.854 | 0.765 | 0.798 | 0.264 | 0.369 | 0.168 | 0.422 | 0.387 |
| LCLC-103H | 0.817 | 0.639 | 0.863 | 0.692 | 1.17 | 0.883 | 1.02 | 0.955 | – | – | – | – | 0.498 | 0.344 | 0.533 | 0.399 | 0.355 | 0.275 | 0.384 | 0.292 |
| NCI-H441 | 1.14 | 1.07 | 1.02 | 0.203 | 0.701 | 0.624 | 0.233 | 0.0722 | – | – | – | – | 0.547 | 0.656 | 0.451 | 0.0877 | 0.788 | 0.838 | 0.604 | 0.45 |
| NCI-H520 | – | – | – | – | 0.884 | 0.667 | 0.563 | 0.0734 | 0.91 | 0.666 | 0.373 | 0.0913 | 0.166 | 0.158 | 0.138 | 0.0789 | 0.555 | 0.535 | 0.61 | 0.105 |
| NCI-H522 | 0.955 | 0.857 | 0.756 | 0.518 | – | – | – | – | – | – | – | – | 0.842 | 0.812 | 0.868 | 0.454 | 0.681 | 0.736 | 0.668 | 0.549 |
